How the values were obtained:
[1] = tested on: ECHORC (Watergrass (Calif.)); assay: Preemergence weed control under flooded paddy conditions; format: in vivo, Echinochloa oryzoides; conditions: rated 3-4 weeks after treatment
In short: (§1)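 Ratings on a 0-9 visual scale cover stand, vigor, malformation, size, chlorosis and overall appearance relative to a control, taken three to four weeks post-treatment. Application was into flood water over freshly sown silt loam at roughly 0.0313 to 0.500 kg/ha.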

ORYSAT (Rice, Tebonnet) = assay: Preemergence herbicidal evaluation; format: in vivo, Oryza sativa, (L.) Tebonnet; conditions: rated 4-5 weeks after treatment; for ORYSAT rating: preemergence, 0-9 scale
In short: (§2)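 Visual 0-9 rating vs control (stand, vigor, malformation, size, chlorosis, overall appearance), scored 4-5 wk after spraying. Seeded soil cups were treated preemergence with compound in aqueous acetone, ~0.0156-0.500 kg/ha equivalent.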

MOOVA (Monochoria) = assay: Postemergence weed control under flooded paddy conditions; format: in vivo, Monochoria vaginalis; conditions: postemergence weeds
In short: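 Flood-water application, about 0.0313–0.500 kg/ha a.i. in aqueous/acetone 50/50 v/v; water depth 1.5–3 cm throughout. Weeds 3–5 cm, rice 1.5–2.5 leaf. Greenhouse; 0–9 visual rating vs control at 3–4 wk.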

ECHCG (Barnyardgrass) = assay: Postemergence herbicidal evaluation; format: in vivo, Echinochloa crus-galli; conditions: for ECHCG herbicidal rating: postemergence
In short: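 Seedlings grown about two weeks were sprayed at 40 psi with compound dispersed in 50/50 acetone/water plus 0.5% TWEEN 20, at about 0.0156 to 0.500 kg/ha. Plants were kept in the greenhouse and scored 4–5 weeks later on a 0–9 visual scale against untreated controls.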

[2] = tested on: CHEAL (Lambsquarters, Common); assay: Preemergence herbicidal evaluation; format: in vivo, Chenopodium album; conditions: rated 4-5 weeks after treatment; for CHEAL rating: preemergence, 0-9 scale
In short: as §2

CYPSE (Flatsedge) = assay: Preemergence weed control under flooded paddy conditions; format: in vivo, Cyperus serotinus; conditions: rated 3-4 weeks after treatment
In short: as §1

[3] = Rate 0.0313 kg/ha, rated 3 to 4 weeks after treatment
[4] = Rate 0.0625 kg/ha, rated 3 to 4 weeks after treatment
[5] = Rate 0.1250 kg/ha, rated 3 to 4 weeks after treatment
[6] = Rate 0.2500 kg/ha, rated 3 to 4 weeks after treatment
[7] = rate 0.1250 kg/ha, 3-4 weeks after treatment
[8] = rate 0.2500 kg/ha, 3-4 weeks after treatment

## C=CCN1C(=O)C(CC(=O)NOC)SC1=Nc1cc(-n2c(=O)cc(C(F)(F)F)n(C)c2=O)c(F)cc1Cl (stereo not shown) [Compound 85]
[1]; 0.0313 kg/ha
  ECHORC herbicidal effect rating: 4.0
[1]; 0.0625 kg/ha
  ECHORC herbicidal effect rating: 5.0
[1]; 0.1250 kg/ha
  ECHORC herbicidal effect rating: 7.0
[1]; 0.2500 kg/ha
  ECHORC herbicidal effect rating: 9.0
ORYSAT (Rice, Tebonnet); 0.0156 kg/ha
  ORYSAT rating: 0.0
ORYSAT (Rice, Tebonnet); 0.0313 kg/ha
  ORYSAT rating: 0.0
ORYSAT (Rice, Tebonnet); 0.0625 kg/ha
  ORYSAT rating: 0.0
ORYSAT (Rice, Tebonnet); 0.1250 kg/ha
  ORYSAT rating: 0.0
ORYSAT (Rice, Tebonnet); 0.2500 kg/ha
  ORYSAT rating: 2.0
ORYSAT (Rice, Tebonnet); 0.5000 kg/ha
  ORYSAT rating: 3.0
MOOVA (Monochoria); [3]
  Herbicidal rating MOOVA: 9.0
MOOVA (Monochoria); [4]
  Herbicidal rating MOOVA: 9.0
MOOVA (Monochoria); [5]
  Herbicidal rating MOOVA: 9.0
MOOVA (Monochoria); [6]
  Herbicidal rating MOOVA: 9.0
ECHCG (Barnyardgrass); rate 0.0156 kg/ha
  ECHCG herbicidal rating: 0.0
ECHCG (Barnyardgrass); rate 0.0313 kg/ha
  ECHCG herbicidal rating: 0.0
ECHCG (Barnyardgrass); rate 0.0625 kg/ha
  ECHCG herbicidal rating: 0.0
ECHCG (Barnyardgrass); rate 0.1250 kg/ha
  ECHCG herbicidal rating: 9.0
[2]; 0.0156 kg/ha
  CHEAL rating: 3.0
[2]; 0.0313 kg/ha
  CHEAL rating: 9.0
[2]; 0.0625 kg/ha
  CHEAL rating: 9.0
[2]; 0.1250 kg/ha
  CHEAL rating: 9.0
[2]; 0.2500 kg/ha
  CHEAL rating: 9.0
[2]; 0.5000 kg/ha
  CHEAL rating: 9.0
CYPSE (Flatsedge); 0.0313 kg/ha
  CYPSE herbicidal effect rating: 0.0
CYPSE (Flatsedge); 0.0625 kg/ha
  CYPSE herbicidal effect rating: 2.0
CYPSE (Flatsedge); 0.1250 kg/ha
  CYPSE herbicidal effect rating: 2.0
CYPSE (Flatsedge); 0.2500 kg/ha
  CYPSE herbicidal effect rating: 9.0

## C=CCN1C(=O)C(CC(=O)OC(C)C)SC1=Nc1cc(-n2c(=O)cc(C(F)(F)F)n(C)c2=O)c(F)cc1Cl (stereo not shown) [Compound 66, Isopropyl 3-allyl-2-{{2-chloro-5-[3,6-dihydro-3-methyl-2,6-dioxo-4-(trifluoromethyl)-1(2H)-pyrimidinyl]-4-fluorophenyl}imino}-4-oxo-5-thiazolidineacetate]
[1]; 0.0313 kg/ha
  ECHORC herbicidal effect rating: 7.0
[1]; 0.0625 kg/ha
  ECHORC herbicidal effect rating: 7.0
[1]; 0.1250 kg/ha
  ECHORC herbicidal effect rating: 9.0
[1]; 0.2500 kg/ha
  ECHORC herbicidal effect rating: 9.0
ORYSAT (Rice, Tebonnet); rate 0.0156 kg/ha
  Preemergence herbicidal rating ORYSAT: 0.0
ORYSAT (Rice, Tebonnet); rate 0.0313 kg/ha
  Preemergence herbicidal rating ORYSAT: 0.0
ORYSAT (Rice, Tebonnet); rate 0.0625 kg/ha
  Preemergence herbicidal rating ORYSAT: 0.5
ORYSAT (Rice, Tebonnet); rate 0.1250 kg/ha
  Preemergence herbicidal rating ORYSAT: 0.5
ORYSAT (Rice, Tebonnet); rate 0.2500 kg/ha
  Preemergence herbicidal rating ORYSAT: 2.5
ORYSAT (Rice, Tebonnet); rate 0.5000 kg/ha
  Preemergence herbicidal rating ORYSAT: 8.0
MOOVA (Monochoria); [3]
  Herbicidal rating MOOVA: 9.0
MOOVA (Monochoria); [4]
  Herbicidal rating MOOVA: 9.0
MOOVA (Monochoria); [5]
  Herbicidal rating MOOVA: 9.0
MOOVA (Monochoria); [6]
  Herbicidal rating MOOVA: 9.0
ECHCG (Barnyardgrass); rate 0.0158 kg/ha
  ECHCG herbicidal rating: 2.0
ECHCG (Barnyardgrass); rate 0.0313 kg/ha
  ECHCG herbicidal rating: 9.0
ECHCG (Barnyardgrass); rate 0.0625 kg/ha
  ECHCG herbicidal rating: 9.0
ECHCG (Barnyardgrass); rate 0.1250 kg/ha
  ECHCG herbicidal rating: 9.0
[2]; rate 0.0156 kg/ha
  Preemergence herbicidal rating CHEAL: 4.0
[2]; rate 0.0313 kg/ha
  Preemergence herbicidal rating CHEAL: 9.0
[2]; rate 0.0625 kg/ha
  Preemergence herbicidal rating CHEAL: 9.0
[2]; rate 0.1250 kg/ha
  Preemergence herbicidal rating CHEAL: 9.0
[2]; rate 0.2500 kg/ha
  Preemergence herbicidal rating CHEAL: 9.0
[2]; rate 0.5000 kg/ha
  Preemergence herbicidal rating CHEAL: 9.0
CYPSE (Flatsedge); 0.0313 kg/ha
  CYPSE herbicidal effect rating: 0.0
CYPSE (Flatsedge); 0.0625 kg/ha
  CYPSE herbicidal effect rating: 0.0
CYPSE (Flatsedge); 0.1250 kg/ha
  CYPSE herbicidal effect rating: 4.0
CYPSE (Flatsedge); 0.2500 kg/ha
  CYPSE herbicidal effect rating: 4.0

## CCOC(=O)CN1C(=O)C(C)SC1=Nc1cc(-n2c(=O)cc(C(F)(F)F)n(C)c2=O)c(F)cc1Cl (stereo not shown) [Compound 12]
[1]; 0.0313 kg/ha
  Herbicidal rating ECHORC: 5.0
[1]; 0.0625 kg/ha
  Herbicidal rating ECHORC: 9.0
[1]; 0.1250 kg/ha
  Herbicidal rating ECHORC: 8.5
[1]; 0.2500 kg/ha
  Herbicidal rating ECHORC: 9.0
ORYSAT (Rice, Tebonnet); rate 0.0156 kg/ha
  ORYSAT preemergence herbicidal rating: 0.0
ORYSAT (Rice, Tebonnet); rate 0.0313 kg/ha
  ORYSAT preemergence herbicidal rating: 1.0
ORYSAT (Rice, Tebonnet); rate 0.0625 kg/ha
  ORYSAT preemergence herbicidal rating: 4.0
ORYSAT (Rice, Tebonnet); rate 0.1250 kg/ha
  ORYSAT preemergence herbicidal rating: 7.0
ORYSAT (Rice, Tebonnet); rate 0.2500 kg/ha
  ORYSAT preemergence herbicidal rating: 7.0
MOOVA (Monochoria); rate 0.0313 kg/ha, 3-4 weeks after treatment
  Herbicidal rating MOOVA: 9.0
MOOVA (Monochoria); rate 0.0625 kg/ha, 3-4 weeks after treatment
  Herbicidal rating MOOVA: 9.0
MOOVA (Monochoria); [7]
  Herbicidal rating MOOVA: 9.0
MOOVA (Monochoria); [8]
  Herbicidal rating MOOVA: 9.0
ECHCG (Barnyardgrass); rate 0.0156 kg/ha
  ECHCG herbicidal rating: 0.0
ECHCG (Barnyardgrass); rate 0.0313 kg/ha
  ECHCG herbicidal rating: 1.0
ECHCG (Barnyardgrass); rate 0.0625 kg/ha
  ECHCG herbicidal rating: 4.0
ECHCG (Barnyardgrass); rate 0.1250 kg/ha
  ECHCG herbicidal rating: 9.0
[2]; rate 0.0156 kg/ha
  CHEAL preemergence herbicidal rating: 9.0
[2]; rate 0.0313 kg/ha
  CHEAL preemergence herbicidal rating: 9.0
[2]; rate 0.0625 kg/ha
  CHEAL preemergence herbicidal rating: 9.0
[2]; rate 0.1250 kg/ha
  CHEAL preemergence herbicidal rating: 9.0
[2]; rate 0.2500 kg/ha
  CHEAL preemergence herbicidal rating: 9.0
CYPSE (Flatsedge); 0.0313 kg/ha
  Herbicidal rating CYPSE: 1.0
CYPSE (Flatsedge); 0.0625 kg/ha
  Herbicidal rating CYPSE: 3.0
CYPSE (Flatsedge); 0.1250 kg/ha
  Herbicidal rating CYPSE: 1.0
CYPSE (Flatsedge); 0.2500 kg/ha
  Herbicidal rating CYPSE: 6.0

## C#CCOC(=O)CC1SC(=Nc2cc(-n3c(=O)cc(C(F)(F)F)n(C)c3=O)c(F)cc2Cl)N(CC(=O)OCC)C1=O (stereo not shown) [Compound 59, 2-{{2-Chloro-5-[3,6-dihydro-3-methyl-2,6-dioxo-4-(trifluoromethyl)-1(2H)-pyrimidinyl]-4-fluorophenyl}imino}-4-oxo-3,5-thiazolidinediacetic acid, 3-ethyl (2-propynyl) ester]
[1]; 0.0625 kg/ha
  ECHORC herbicidal effect rating: 4.0
[1]; 0.1250 kg/ha
  ECHORC herbicidal effect rating: 5.0
[1]; 0.2500 kg/ha
  ECHORC herbicidal effect rating: 7.0
ORYSAT (Rice, Tebonnet); rate 0.0156 kg/ha
  Preemergence herbicidal rating ORYSAT: 0.0
ORYSAT (Rice, Tebonnet); rate 0.0313 kg/ha
  Preemergence herbicidal rating ORYSAT: 0.0
ORYSAT (Rice, Tebonnet); rate 0.0625 kg/ha
  Preemergence herbicidal rating ORYSAT: 0.5
ORYSAT (Rice, Tebonnet); rate 0.1250 kg/ha
  Preemergence herbicidal rating ORYSAT: 2.5
ORYSAT (Rice, Tebonnet); rate 0.2500 kg/ha
  Preemergence herbicidal rating ORYSAT: 3.5
ORYSAT (Rice, Tebonnet); rate 0.5000 kg/ha
  Preemergence herbicidal rating ORYSAT: 7.0
MOOVA (Monochoria); [4]
  Herbicidal rating MOOVA: 0.0
MOOVA (Monochoria); [7]
  Herbicidal rating MOOVA: 0.0
MOOVA (Monochoria); [8]
  Herbicidal rating MOOVA: 9.0
ECHCG (Barnyardgrass); Rate 0.0158 kg/ha
  Postemergence herbicidal rating ECHCG: 9.0
ECHCG (Barnyardgrass); Rate 0.0315 kg/ha
  Postemergence herbicidal rating ECHCG: 9.0
ECHCG (Barnyardgrass); Rate 0.0630 kg/ha
  Postemergence herbicidal rating ECHCG: 9.0
[2]; rate 0.0156 kg/ha
  Preemergence herbicidal rating CHEAL: 9.0
[2]; rate 0.0313 kg/ha
  Preemergence herbicidal rating CHEAL: 9.0
[2]; rate 0.0625 kg/ha
  Preemergence herbicidal rating CHEAL: 9.0
[2]; rate 0.1250 kg/ha
  Preemergence herbicidal rating CHEAL: 9.0
[2]; rate 0.2500 kg/ha
  Preemergence herbicidal rating CHEAL: 9.0
[2]; rate 0.5000 kg/ha
  Preemergence herbicidal rating CHEAL: 9.0
CYPSE (Flatsedge); 0.0625 kg/ha
  CYPSE herbicidal effect rating: 0.0
CYPSE (Flatsedge); 0.1250 kg/ha
  CYPSE herbicidal effect rating: 0.0
CYPSE (Flatsedge); 0.2500 kg/ha
  CYPSE herbicidal effect rating: 7.0

Reference: patent US20020137929A1, “1 - (3-heterocyclylphenyl) isothiourea, -isourea, -guanidine and -amidine herbicidal agents” (Intellectual Property Department, BASF Aktiengesellschaft, priority 1998, published 2002)
